The target in this test is T1, NLRP3 (Homo sapiens, UniProt Q96P20).
T1 construct: Seed THP-1 cells (25,000 cells/well) containing 1.0 μg/ml LPS in 40 μl of RPMI medium; host or cells: THP-1 cells
Nature of the test: THP-1 Cells Pyroptosis Assay. The class given is cell-based. Particulars: THP-1 cells with 1.0 μg/ml LPS; compound 3 hours; nigericin 5 μM 1 hr; resazurin readout. Put shortly: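 THP-1 cells in serum-free RPMI primed with LPS (1 μg/ml FAC), incubated with compound 3 h at 37 °C, then nigericin (5 μM FAC) for 1 h. Supernatant removed after spin; viability read by resazurin (100 μM FAC) reduction after a further 1-2 h at 37 °C.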
(Resazurin is reduced to fluorescent resorufin, in cell work by metabolically active cells.)

T1 sequence (Q96P20 whole entry): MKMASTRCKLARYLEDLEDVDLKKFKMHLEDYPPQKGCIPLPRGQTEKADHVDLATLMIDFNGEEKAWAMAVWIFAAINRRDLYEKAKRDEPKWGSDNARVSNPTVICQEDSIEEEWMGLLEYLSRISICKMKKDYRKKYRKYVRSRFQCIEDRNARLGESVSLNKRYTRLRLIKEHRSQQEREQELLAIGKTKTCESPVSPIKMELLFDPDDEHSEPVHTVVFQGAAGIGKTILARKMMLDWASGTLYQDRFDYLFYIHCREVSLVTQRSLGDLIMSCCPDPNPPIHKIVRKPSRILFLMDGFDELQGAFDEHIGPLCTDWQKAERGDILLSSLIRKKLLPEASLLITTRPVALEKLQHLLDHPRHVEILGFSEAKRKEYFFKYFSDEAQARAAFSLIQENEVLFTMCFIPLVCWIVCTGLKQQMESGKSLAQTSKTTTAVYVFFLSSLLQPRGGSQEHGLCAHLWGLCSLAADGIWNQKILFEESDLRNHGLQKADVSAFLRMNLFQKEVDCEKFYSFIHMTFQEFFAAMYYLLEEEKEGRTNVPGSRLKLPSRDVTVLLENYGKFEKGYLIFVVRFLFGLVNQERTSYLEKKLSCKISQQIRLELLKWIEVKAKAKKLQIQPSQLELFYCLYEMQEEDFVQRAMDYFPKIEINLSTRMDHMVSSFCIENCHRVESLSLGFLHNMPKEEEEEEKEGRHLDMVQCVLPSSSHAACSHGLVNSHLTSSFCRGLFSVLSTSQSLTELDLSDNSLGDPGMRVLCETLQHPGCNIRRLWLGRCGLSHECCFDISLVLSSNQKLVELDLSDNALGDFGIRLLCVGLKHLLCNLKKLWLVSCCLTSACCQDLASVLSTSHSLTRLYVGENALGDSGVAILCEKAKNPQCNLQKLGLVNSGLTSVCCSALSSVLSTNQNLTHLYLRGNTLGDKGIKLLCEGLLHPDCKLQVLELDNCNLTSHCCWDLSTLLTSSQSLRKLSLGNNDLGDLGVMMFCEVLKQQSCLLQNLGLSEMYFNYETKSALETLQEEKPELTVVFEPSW

Usually IC50 stands for the concentration that gives 50% inhibition. A high value points to lower potency. Compound `Cc1cc(Cl)cc(O)c1-c1ccc2oc(N[C@@H]3CCCN(CCCO)C3)nc2n1` [Example 95, 5-Chloro-2-[2-[[(3R)-1-(3-hydroxypropyl)-3-piperidyl]amino]oxazolo[4,5-b]pyridin-5-yl]-3-methyl-phenol] gave an IC50 of 11.2 nM.
Then `COCCCN1CCC[C@@H](Nc2nc3nc(-c4c(C)cc(Cl)cc4O)ccc3o2)C1` [Example 96, 5-Chloro-2-[2-[[(3R)-1-(3-methoxypropyl)-3-piperidyl]amino]oxazolo[4,5-b]pyridin-5-yl]-3-methyl-phenol], with 56.1 nM.
Then `Cc1cc(Cl)cc(O)c1-c1ccc2oc(N[C@@H]3CCCN(CC(C)O)C3)nc2n1` (stereo partly drawn) [Example 97, 5-Chloro-3-methyl-2-[2-[[(3R)-1-(2-hydroxypropyl)-3-piperidyl]amino]oxazolo[4,5-b]pyridin-5-yl]phenol], with 93.9 nM.
Next, `Cc1cc(Cl)cc(O)c1-c1ccc2oc(N(CCO)[C@@H]3CCCN(C)C3)nc2n1` [Example 98, 5-Chloro-2-[2-[2-hydroxyethyl-[(3R)-1-methyl-3-piperidyl]amino]oxazolo[4,5-b]pyridin-5-yl]-3-methyl-phenol]: 11.1 nM; `CCN1CC[C@@H](F)[C@@H](Nc2nc3nc(-c4c(C)cc(Cl)cc4O)ccc3o2)C1` [Example 99A, 5-Chloro-2-[2-[[(3S,4R)-1-ethyl-4-fluoro-3-piperidyl]amino]oxazolo[4,5-b]pyridin-5-yl]-3-methyl-phenol]: 1.9 nM.
`COCc1cc(Cl)cc(O)c1-c1ccc2oc(N[C@@H]3C[C@H](O)CN(C)C3)nc2n1` [Example 100, (3S,5R)-5-[[5-[4-Chloro-2-hydroxy-6-(methoxymethyl)phenyl]oxazolo[4,5-b]pyridin-2-yl]amino]-1-methyl-piperidin-3-ol]: the IC50 amounted to 18.4 nM.
Compound `CCN1CCC[C@@H](Nc2nc3nc(-c4c(C)cc(C(F)(F)F)cc4O)cc(N4CC(O)C4)c3o2)C1` [Example 101, 1-[2-[[(3R)-1-Ethyl-3-piperidyl]amino]-5-[2-hydroxy-6-methyl-4-(trifluoromethyl)phenyl]-oxazolo[4,5-b]pyridin-7-yl]azetidin-3-ol] gave an IC50 of 6 nM.
Compound `CC(=O)c1cc(-c2c(C)cc(C(F)(F)F)cc2O)nc2nc(N[C@@H]3CCCN(C)C3)oc12` [Example 102, 1-[5-[2-Hydroxy-6-methyl-4-(trifluoromethyl)phenyl]-2-[[(3R)-1-methyl-3-piperidyl]amino]oxazolo[4,5-b]pyridin-7-yl]ethanone;2,2,2-trifluoroacetic acid] showed an IC50 of 6.5 nM.
`CCN1CCC[C@@H](Nc2nc3nc(-c4c(C)cc(C(F)(F)F)cc4O)cc(NC)c3o2)C1` [Example 103, 2-[2-[[(3R)-1-Ethyl-3-piperidyl]amino]-7-(methylamino)oxazolo[4,5-b]pyridin-5-yl]-3-methyl-5-(trifluoromethyl)phenol] showed a 50% inhibitory concentration (IC50) of 4.6 nM.
For the compound `CCN1CCC[C@@H](Nc2nc3nc(-c4c(C)cc(C(F)(F)F)cc4O)cc(OC)c3o2)C1` [Example 104, 2-[2-[[(3R)-1-Ethyl-3-piperidyl]amino]-7-methoxy-oxazolo[4,5-b]pyridin-5-yl]-3-methyl-5-(trifluoromethyl)phenol], the IC50 was found to be 1.9 nM. Against the preceding compound, the IC50 is about 2.4-fold lower.
Then `Cc1cc(C(F)(F)F)cc(O)c1-c1cc(C(C)(C)O)c2oc(N[C@@H]3CCCN(C)C3)nc2n1` [Example 105, 2-[7-(1-Hydroxy-1-methyl-ethyl)-2-[[(3R)-1-methyl-3-piperidyl]amino]oxazolo[4,5-b]pyridin-5-yl]-3-methyl-5-(trifluoromethyl)phenol;2,2,2-trifluoroacetic acid], with 8.9 nM.
Then `Cc1cc(C(F)(F)F)cc(O)c1-c1cc(C(C)O)c2oc(N[C@@H]3CCCN(C)C3)nc2n1` (stereo partly drawn) [Example 106, 2-[7-(1-Hydroxyethyl)-2-[[(3R)-1-methyl-3-piperidyl]amino]oxazolo[4,5-b]pyridin-5-yl]-3-methyl-5-(trifluoromethyl)phenol], with 22 nM.
Then `CCN1CCC[C@@H](Nc2nc3nc(-c4c(O)cc(C#N)cc4Cl)ccc3o2)C1` [Example 107, 3-Chloro-4-[2-[[(3R)-1-ethyl-3-piperidyl]amino]oxazolo[4,5-b]pyridin-5-yl]-5-hydroxy-benzonitrile;2,2,2-trifluoroacetic acid], with 8.8 nM; and `Cc1cc(C#N)cc(O)c1-c1ccc2oc(N[C@@H]3CCC[C@H]3N(C)C)nc2n1` [Example 108, 4-[2-[[(1R,2R)-2-(Dimethylamino)cyclopentyl]amino]oxazolo[4,5-b]pyridin-5-yl]-3-hydroxy-5-methyl-benzonitrile], with 16.8 nM.
Turning to `CCN1CCC[C@@H](Nc2nc3nc(-c4c(C)cc(C#N)cc4O)cnc3o2)C1` [Example 109, 4-[2-[[(3R)-1-Ethyl-3-piperidyl]amino]oxazolo[4,5-b]pyrazin-5-yl]-3-hydroxy-5-methyl-benzonitrile;2,2,2-trifluoroacetic acid], the midpoint of inhibition, the IC50, lay at 1.4 nM.
`CCN1CCC[C@@H](Nc2nc3nc(-c4c(O)cc(C#N)cc4COC)ccc3o2)C1` [Example 110, 4-[2-[[(3R)-1-Ethyl-3-piperidyl]amino]oxazolo[4,5-b]pyridin-5-yl]-3-hydroxy-5-(methoxymethyl)benzonitrile;2,2,2-trifluoroacetic acid] came in with an IC50 of 5.8 nM.
Then `CCN1CCC[C@@H](Nc2nc3nc(-c4c(C)cc(C#N)cc4O)cc(OC)c3o2)C1` [Example 111, 4-[2-[[(3R)-1-Ethyl-3-piperidyl]amino]-7-methoxy-oxazolo[4,5-b]pyridin-5-yl]-3-hydroxy-5-methyl-benzonitrile;2,2,2-trifluoroacetic acid], with 2.2 nM; and `Cc1cc(Cl)cc(O)c1-c1ccc2oc(N[C@@H]3CCC[C@H]3N(C)C)nc2n1` [Example 112, 5-Chloro-2-[2-[[(1R,2R)-2-(dimethylamino)cyclopentyl]amino]oxazolo[4,5-b]pyridin-5-yl]-3-methyl-phenol], with 6.6 nM.
Next, `CCN1CCC[C@@H](Nc2nc3nc(-c4c(C)cc(Cl)cc4O)cnc3o2)C1` [Example 113, 5-Chloro-2-[2-[[(3R)-1-ethyl-3-piperidyl]amino]oxazolo[4,5-b]pyrazin-5-yl]-3-methyl-phenol;2,2,2-trifluoroacetic acid]: 0.5 nM; `Cc1cc(C#N)cc(O)c1-c1ccc2oc(NC3CCCN4C[C@@H](O)CC34)nc2n1` (stereo partly drawn) [Example 115, 3-Hydroxy-5-methyl-4-[2-[[(2S)-2-hydroxy-1,2,3,5,6,7,8,8a-octahydroindolizin-8-yl]amino]oxazolo[4,5-b]pyridin-5-yl]benzonitrile;2,2,2-trifluoroacetic acid]: 48.5 nM.
Then `CCN1CCC[C@@H](Nc2nc3nc(-c4c(C)cc(C(F)(F)F)cc4O)cc(N(C)C)c3o2)C1` [Example 116, 2-[7-(Dimethylamino)-2-[[(3R)-1-ethyl-3-piperidyl]amino]oxazolo[4,5-b]pyridin-5-yl]-3-methyl-5-(trifluoromethyl)phenol], with 6.9 nM.
Regarding `CCN1CCC[C@@H](Nc2nc3nc(-c4c(C)cc(C(F)(F)F)cc4O)cc(C#N)c3o2)C1` [Example 117, 2-[[(3R)-1-Ethyl-3-piperidyl]amino]-5-[2-hydroxy-6-methyl-4 (trifluoromethyl)phenyl]-oxazolo[4,5-b]pyridine-7-carbonitrile], the IC50 came out at 5.2 nM.
In the case of `CCN1CCC[C@@H](Nc2nc3nc(-c4c(O)cccc4C#N)ccc3o2)C1` [Example 119, 2-[2-[[(3R)-1-Ethyl-3-piperidyl]amino]oxazolo[4,5-b]pyridin-5-yl]-3-hydroxy-benzonitrile], the concentration for half-maximal inhibition (IC50) was found to be 23 nM.
Next, `Cc1cc(C(F)(F)F)cc(O)c1-c1ccc2oc(NC34CCC(CC3)N(C)C4)nc2n1` [Example 120, 3-Methyl-2-[2-[(2-methyl-2-azabicyclo[2.2.2]octan-4-yl)amino]oxazolo[4,5-b]pyridin-5-yl]-5-(trifluoromethyl)phenol]: 108 nM; `Cc1cc(C(F)F)cc(O)c1-c1ccc2oc(N[C@@H]3CCCN(C)C3)nc2n1` [Example 121, 5-(Difluoromethyl)-3-methyl-2-[2-[[(3R)-1-methyl-3-piperidyl]amino]oxazolo[4,5-b]pyridin-5-yl]phenol]: 2.7 nM.
For the compound `CCN1CCC[C@@H](Nc2nc3nc(-c4c(C)cc(C(F)F)cc4O)ccc3o2)C1` [Example 122, 5-(Difluoromethyl)-2-[2-[[(3R)-1-ethyl-3-piperidyl]amino]oxazolo[4,5-b]pyridin-5-yl]-3-methyl-phenol;2,2,2-trifluoroacetic acid], the IC50 stood at 1 nM.
Regarding `CCN1CCC[C@@H](Nc2nc3nc(-c4c(C)cc(C)cc4O)ccc3o2)C1` [Example 123, 2-[2-[[(3R)-1-Ethyl-3-piperidyl]amino]oxazolo[4,5-b]pyridin-5-yl]-3,5-dimethyl-phenol], half-maximal inhibition (IC50) was put at 0.7 nM.
Next, `CCN1CCC(O)C(Nc2nc3nc(-c4c(C)cc(Cl)cc4O)ccc3o2)C1` (stereo not shown) [Example 124, 3-[[5-(4-Chloro-2-hydroxy-6-methyl-phenyl)oxazolo[4,5-b]pyridin-2-yl]amino]-1-ethyl-piperidin-4-ol]: 53.8 nM; `CCN1CCC[C@@H](Nc2nc3nc(-c4c(C)cccc4O)ccc3o2)C1` [Example 125, 2-[2-[[(3R)-1-Ethyl-3-piperidyl]amino]oxazolo[4,5-b]pyridin-5-yl]-3-methyl-phenol]: 3 nM; `CN1CCC[C@@H](Nc2nc3nc(-c4c(O)cc(F)cc4C(F)(F)F)ccc3o2)C1` [Example 126, 5-Fluoro-2-[2-[[(3R)-1-methyl-3-piperidyl]amino]oxazolo[4,5-b]pyridin-5-yl]-3-(trifluoromethyl)phenol;2,2,2-trifluoroacetic acid]: 3.9 nM.
Then `CCN1CCC[C@@H](Nc2nc3nc(-c4ccc(Cl)cc4O)c(Cl)cc3o2)C1` [Example 127, 5-Chloro-2-[6-Chloro-2-[[(3R)-1-ethyl-3-piperidyl]amino]oxazolo[4,5-b]pyridin-5-yl]phenol], with 20.6 nM.

(Values after patent publication US20240279237A1, “FUSED BICYCLIC HETEROARYL COMPOUNDS USEFUL AS NLRP3 INHIBITORS” (Hoffmann-La Roche Inc., priority 2021, published 2024).)
